Experiment [1] concerns the target Mitogen-activated protein kinase 11 (Homo sapiens) (UniProt Q15759). In words: Selectivity interaction (Kinase screening (Upstate/Millipore)) EUB0000604a MAPK11.
The target of experiment [2] is T1, Bromodomain and PHD finger-containing protein 3 (Homo sapiens) (UniProt Q9ULD4).
T1 sequence (whole entry): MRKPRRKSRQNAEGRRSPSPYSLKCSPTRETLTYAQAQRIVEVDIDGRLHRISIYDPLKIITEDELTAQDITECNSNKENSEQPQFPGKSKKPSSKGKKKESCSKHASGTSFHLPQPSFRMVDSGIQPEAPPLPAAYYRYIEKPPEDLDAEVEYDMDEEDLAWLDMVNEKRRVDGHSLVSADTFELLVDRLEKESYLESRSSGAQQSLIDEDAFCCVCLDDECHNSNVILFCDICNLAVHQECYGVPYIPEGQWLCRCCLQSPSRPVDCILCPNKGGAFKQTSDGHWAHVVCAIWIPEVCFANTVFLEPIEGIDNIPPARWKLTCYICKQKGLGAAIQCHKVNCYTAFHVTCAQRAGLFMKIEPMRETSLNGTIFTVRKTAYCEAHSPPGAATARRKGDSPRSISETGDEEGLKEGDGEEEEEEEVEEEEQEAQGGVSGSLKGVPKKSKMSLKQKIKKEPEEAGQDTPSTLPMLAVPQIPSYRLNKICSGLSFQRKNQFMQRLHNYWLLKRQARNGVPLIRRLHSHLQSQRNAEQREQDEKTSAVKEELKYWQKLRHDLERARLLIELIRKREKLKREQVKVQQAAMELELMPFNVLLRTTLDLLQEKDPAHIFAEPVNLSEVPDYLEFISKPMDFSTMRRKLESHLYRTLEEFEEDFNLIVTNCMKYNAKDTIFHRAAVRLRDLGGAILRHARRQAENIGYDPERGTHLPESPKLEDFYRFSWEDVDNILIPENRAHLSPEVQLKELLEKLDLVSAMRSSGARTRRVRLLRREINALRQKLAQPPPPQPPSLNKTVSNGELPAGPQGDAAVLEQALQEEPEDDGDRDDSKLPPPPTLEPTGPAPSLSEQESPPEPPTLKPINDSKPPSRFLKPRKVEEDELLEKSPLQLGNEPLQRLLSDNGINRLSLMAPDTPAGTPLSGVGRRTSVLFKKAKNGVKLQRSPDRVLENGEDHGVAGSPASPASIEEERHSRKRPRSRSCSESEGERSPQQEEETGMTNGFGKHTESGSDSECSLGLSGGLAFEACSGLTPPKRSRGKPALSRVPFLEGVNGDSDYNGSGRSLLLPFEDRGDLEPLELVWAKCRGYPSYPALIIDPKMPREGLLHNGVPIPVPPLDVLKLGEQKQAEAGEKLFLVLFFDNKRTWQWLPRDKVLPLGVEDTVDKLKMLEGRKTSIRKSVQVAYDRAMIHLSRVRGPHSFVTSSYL
As to the kind of experiment: Selectivity interaction (Bromodomain panel (DSF asssay)) EUB0000270b BRPF3.

Experiment [3] concerns the target T2, Phosphatidylinositol 4,5-bisphosphate 3-kinase catalytic subunit delta isoform (Homo sapiens) (UniProt O00329).
T2 sequence (whole entry): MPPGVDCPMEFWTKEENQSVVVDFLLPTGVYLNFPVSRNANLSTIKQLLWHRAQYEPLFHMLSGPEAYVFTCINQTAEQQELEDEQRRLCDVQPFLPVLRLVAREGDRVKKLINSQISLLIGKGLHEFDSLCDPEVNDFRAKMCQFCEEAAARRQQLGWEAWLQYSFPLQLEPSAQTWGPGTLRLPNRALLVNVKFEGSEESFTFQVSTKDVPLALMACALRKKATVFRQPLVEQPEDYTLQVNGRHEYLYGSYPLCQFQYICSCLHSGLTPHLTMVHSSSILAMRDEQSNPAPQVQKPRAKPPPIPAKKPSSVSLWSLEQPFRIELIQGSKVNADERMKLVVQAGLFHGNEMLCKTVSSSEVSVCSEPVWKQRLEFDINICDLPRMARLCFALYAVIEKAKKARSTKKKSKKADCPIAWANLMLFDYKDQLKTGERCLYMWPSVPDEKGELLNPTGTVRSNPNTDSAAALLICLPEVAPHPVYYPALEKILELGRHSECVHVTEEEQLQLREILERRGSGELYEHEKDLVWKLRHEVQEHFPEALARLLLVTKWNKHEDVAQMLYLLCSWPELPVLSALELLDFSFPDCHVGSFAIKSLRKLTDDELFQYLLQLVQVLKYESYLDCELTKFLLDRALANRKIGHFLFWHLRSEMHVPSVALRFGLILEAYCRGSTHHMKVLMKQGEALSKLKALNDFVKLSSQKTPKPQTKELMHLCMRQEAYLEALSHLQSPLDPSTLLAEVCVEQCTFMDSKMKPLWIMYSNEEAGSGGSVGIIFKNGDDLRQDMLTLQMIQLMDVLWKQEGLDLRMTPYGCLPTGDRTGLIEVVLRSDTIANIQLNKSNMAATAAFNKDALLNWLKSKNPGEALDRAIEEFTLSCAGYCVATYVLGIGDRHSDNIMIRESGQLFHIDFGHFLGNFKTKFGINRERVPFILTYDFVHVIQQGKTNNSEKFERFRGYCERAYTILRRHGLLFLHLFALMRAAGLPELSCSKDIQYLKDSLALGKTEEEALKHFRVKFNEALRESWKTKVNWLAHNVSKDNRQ
As to the kind of experiment: Selectivity interaction (ActivX KiNativ screen (ex vivo kinase selectivity in human PBMCs)) EUB0001619a PIK3CD. In kind it is cell-based. As to conditions: PBMC, at 1 µM.

Chain of Mitogen-activated protein kinase 11 (Homo sapiens) (Q15759 whole entry): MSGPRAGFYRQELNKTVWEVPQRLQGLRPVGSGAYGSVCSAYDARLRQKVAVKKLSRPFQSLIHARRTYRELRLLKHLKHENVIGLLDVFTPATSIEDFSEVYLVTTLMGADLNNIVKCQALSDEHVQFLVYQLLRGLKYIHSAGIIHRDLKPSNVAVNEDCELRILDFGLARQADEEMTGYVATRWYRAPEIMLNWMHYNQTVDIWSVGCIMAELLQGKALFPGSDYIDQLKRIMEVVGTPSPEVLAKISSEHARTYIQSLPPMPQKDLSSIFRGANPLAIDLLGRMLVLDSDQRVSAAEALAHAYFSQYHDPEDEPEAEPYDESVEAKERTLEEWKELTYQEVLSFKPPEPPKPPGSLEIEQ

On to `Cc1cnc(Nc2ccc(F)cc2Cl)nc1-c1c[nH]c(C(=O)N[C@H](CO)c2cccc(Cl)c2)c1`, for which the % of inhibition in experiment [1] amounted to 25%. Turning to `Cc1cc(CN)cc(C)c1-c1ncn(C)c1-c1cncn1C`, in experiment [2], the dTM is -2.18 K.

As to `N#Cc1cccc(-c2c[nH]c3ncnc(N4CCOCC4)c23)c1`, the % of inhibition in experiment [3] is -12%.
